We go through 38 molecules from patent publication US9902696B2, “1,4-substituted piperidine derivatives” (Cephalon, Inc., priority 2015, dated 2018).

Where a name gives a salt, the structure may show the parent alone.

The target in the test is T1, recombinant human baculovirus-expressed GST-tagged FASN (Homo sapiens, UniProt P49327).
T1 construct: GST
T1 sequence (P49327 whole entry): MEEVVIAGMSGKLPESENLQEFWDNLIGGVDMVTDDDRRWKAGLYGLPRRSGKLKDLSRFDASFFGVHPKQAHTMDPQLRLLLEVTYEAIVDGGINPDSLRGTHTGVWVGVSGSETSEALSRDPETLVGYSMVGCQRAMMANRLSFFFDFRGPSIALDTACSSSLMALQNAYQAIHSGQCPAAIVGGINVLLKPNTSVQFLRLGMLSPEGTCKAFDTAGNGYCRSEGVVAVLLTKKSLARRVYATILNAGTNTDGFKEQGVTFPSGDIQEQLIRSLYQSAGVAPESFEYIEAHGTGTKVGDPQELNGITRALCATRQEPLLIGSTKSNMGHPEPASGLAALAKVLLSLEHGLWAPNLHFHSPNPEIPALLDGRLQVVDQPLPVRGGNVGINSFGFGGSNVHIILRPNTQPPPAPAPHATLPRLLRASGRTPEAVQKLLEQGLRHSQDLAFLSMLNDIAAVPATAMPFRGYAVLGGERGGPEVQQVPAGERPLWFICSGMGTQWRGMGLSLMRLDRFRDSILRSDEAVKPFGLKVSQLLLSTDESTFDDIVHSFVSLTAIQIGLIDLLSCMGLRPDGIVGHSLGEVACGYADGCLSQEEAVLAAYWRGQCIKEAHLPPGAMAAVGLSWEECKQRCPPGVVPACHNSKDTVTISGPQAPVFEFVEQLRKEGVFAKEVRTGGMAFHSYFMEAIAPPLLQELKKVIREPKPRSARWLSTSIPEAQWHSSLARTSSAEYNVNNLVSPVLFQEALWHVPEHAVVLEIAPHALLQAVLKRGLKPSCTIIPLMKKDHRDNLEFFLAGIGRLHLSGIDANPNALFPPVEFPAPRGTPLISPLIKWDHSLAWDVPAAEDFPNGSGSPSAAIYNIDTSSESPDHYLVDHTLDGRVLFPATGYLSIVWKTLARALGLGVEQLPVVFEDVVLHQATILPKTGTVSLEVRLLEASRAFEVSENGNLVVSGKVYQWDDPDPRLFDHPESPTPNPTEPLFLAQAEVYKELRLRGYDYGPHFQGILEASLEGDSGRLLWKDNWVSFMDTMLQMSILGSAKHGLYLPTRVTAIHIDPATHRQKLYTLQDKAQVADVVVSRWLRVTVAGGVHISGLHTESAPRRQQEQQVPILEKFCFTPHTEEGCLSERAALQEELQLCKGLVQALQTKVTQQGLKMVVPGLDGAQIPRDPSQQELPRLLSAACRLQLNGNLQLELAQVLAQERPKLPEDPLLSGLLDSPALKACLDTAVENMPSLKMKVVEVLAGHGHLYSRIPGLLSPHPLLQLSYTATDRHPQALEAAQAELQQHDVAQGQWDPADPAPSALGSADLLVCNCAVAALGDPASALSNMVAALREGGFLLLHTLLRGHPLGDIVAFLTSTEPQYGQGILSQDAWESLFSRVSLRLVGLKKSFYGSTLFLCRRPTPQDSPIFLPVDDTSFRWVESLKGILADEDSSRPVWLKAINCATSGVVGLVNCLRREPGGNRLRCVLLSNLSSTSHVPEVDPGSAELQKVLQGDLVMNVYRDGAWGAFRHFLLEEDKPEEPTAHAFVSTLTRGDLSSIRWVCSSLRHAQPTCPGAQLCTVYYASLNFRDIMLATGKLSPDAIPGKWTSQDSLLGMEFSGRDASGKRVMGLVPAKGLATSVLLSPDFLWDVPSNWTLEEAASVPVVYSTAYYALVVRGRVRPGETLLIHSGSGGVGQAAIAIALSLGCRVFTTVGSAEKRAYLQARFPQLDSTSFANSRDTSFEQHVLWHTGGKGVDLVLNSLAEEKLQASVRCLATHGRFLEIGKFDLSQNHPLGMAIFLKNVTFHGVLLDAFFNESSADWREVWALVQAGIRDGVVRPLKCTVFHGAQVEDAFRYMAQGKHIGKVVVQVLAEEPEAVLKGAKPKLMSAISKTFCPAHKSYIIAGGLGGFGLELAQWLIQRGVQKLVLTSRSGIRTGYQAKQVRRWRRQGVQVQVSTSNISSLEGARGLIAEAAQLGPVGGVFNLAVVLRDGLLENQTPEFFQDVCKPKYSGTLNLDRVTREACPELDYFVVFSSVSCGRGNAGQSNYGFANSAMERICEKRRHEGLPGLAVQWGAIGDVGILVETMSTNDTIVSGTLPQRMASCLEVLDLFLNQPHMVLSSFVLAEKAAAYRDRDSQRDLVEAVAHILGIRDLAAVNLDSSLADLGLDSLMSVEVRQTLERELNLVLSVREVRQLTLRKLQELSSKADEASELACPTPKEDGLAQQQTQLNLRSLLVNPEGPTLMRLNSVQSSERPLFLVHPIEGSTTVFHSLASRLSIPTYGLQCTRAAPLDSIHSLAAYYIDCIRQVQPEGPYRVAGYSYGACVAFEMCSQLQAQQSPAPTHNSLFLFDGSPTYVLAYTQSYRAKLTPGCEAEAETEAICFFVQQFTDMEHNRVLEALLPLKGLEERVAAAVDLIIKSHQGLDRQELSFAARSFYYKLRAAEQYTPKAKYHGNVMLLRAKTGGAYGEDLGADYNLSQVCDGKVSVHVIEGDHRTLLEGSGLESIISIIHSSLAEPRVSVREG
Kind of test: FASN enzyme activity assay, fluorescence-based detection of CoA with CPM. Type of test: biochemical. The conditions noted are these: 5 nM FASN, 150 μM NADPH, 10 μM acetyl-CoA, 25 μM malonyl-CoA, 90 minutes incubation; read-out: IC50 data for Compounds of Formulae I-V/V(a): Activity. A digest of the protocol: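 Human GST-tagged FASN, baculovirus-expressed (5 nM), in 50 mM HEPES pH 7.5 with 150 μM NADPH, 10 μM acetyl-CoA, 25 μM malonyl-CoA, 0.5% DMSO; malonyl-CoA-started, 90 min. Released CoA detected with CPM (50 μM dilution), 30 min, fluorescence ex 390/em 530. IC50 from variable-slope sigmoidal fit of % inhibition versus log concentration.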
Turning to `O=C(C1CC1)N1CCC(Oc2ccc(-c3ccc(-c4ccccc4)nc3)cc2)CC1` [Example 380, Cyclopropyl-{4-[4-(6-phenyl-pyridin-3-yl)-phenoxy]-piperidin-1-yl}-methanone], the IC50 lay within 1000 to 10000 nM.
Consider `O=C(C1CCC1)N1CCC(Oc2ccc(-c3ccc(-c4ccccc4)nc3)cc2)CC1` [Example 381, Cyclobutyl-{4-[4-(6-phenyl-pyridin-3-yl)-phenoxy]-piperidin-1-yl}-methanone], for which the IC50 was 100 to 999 nM.
In the case of `CCC(=O)N1CCC(Oc2ccc(-c3cncc(-c4ccccc4)c3)cc2)CC1` [Example 382, 1-{4-[4-(5-Phenylpyridin-3-yl)-phenoxy]-piperidin-1-yl}-propan-1-one] it was 1000 to 10000 nM.
Take `CC(C)C(=O)N1CCC(Oc2ccc(-c3cncc(-c4ccccc4)c3)cc2)CC1` [Example 383]: the IC50 fell in the range of 1000 to 10000 nM.
Consider `O=C(C1CC1)N1CCC(Oc2ccc(-c3cncc(-c4ccccc4)c3)cc2)CC1` [Example 384, Cyclopropyl-{4-[4-(5-phenyl-pyridin-3-yl)-phenoxy]-piperidin-1-yl}-methanone, TFA salt], for which the IC50 lay in the range of 1000 to 10000 nM.
On to `O=C(C1CCC1)N1CCC(Oc2ccc(-c3cncc(-c4ccccc4)c3)cc2)CC1` [Example 385, Cyclobutyl-{4-[4-(5-phenylpyridin-3-yl)-phenoxy]-piperidin-1-yl}-methanone, TFA salt], for which the IC50 lay within 1000 to 10000 nM.
As for `CCC(=O)N1CCC(Oc2ccc(-c3ccc(N4CCOCC4)nc3)cc2)CC1` [Example 386, 1-{4-[4-(6-Morpholin-4-yl-pyridin-3-yl)-phenoxy]-piperidin-1-yl}-propan-1-one], the figure is 1000 to 10000 nM.
Regarding `O=C(C1CC1)N1CCC(Oc2ccc(-c3ccc(N4CCOCC4)nc3)cc2)CC1` [Example 387, Cyclopropyl-{4-[4-(6-morpholin-4-yl-pyridin-3-yl)-phenoxy]-piperidin-1-yl}-methanone], the IC50 lay within 1000 to 10000 nM.
Take `O=C(C1CCC1)N1CCC(Oc2ccc(-c3ccc(N4CCOCC4)nc3)cc2)CC1` [Example 388, Cyclobutyl-{4-[4-(6-morpholin-4-yl-pyridin-3-yl)-phenoxy]-piperidin-1-yl}-methanone]: the IC50 lay within 1000 to 10000 nM.
As to `CCC(=O)N1CCC(Oc2ccc(-c3ccc(Oc4ccccc4)nc3)cc2)CC1` [Example 389, 1-{4-[4-(6-Phenoxy-pyridin-3-yl)-phenoxy]-piperidin-1-yl}-propan-1-one], the IC50 fell in the range of 1000 to 10000 nM.
In the case of `O=C(C1CC1)N1CCC(Oc2ccc(-c3ccc(Oc4ccccc4)nc3)cc2)CC1` [Example 390, Cyclopropyl-{4-[4-(6-phenoxy-pyridin-3-yl)-phenoxy]-piperidin-1-yl}-methanone] it was 1000 to 10000 nM; in that of `O=C(C1CCC1)N1CCC(Oc2ccc(-c3ccc(Oc4ccccc4)nc3)cc2)CC1` [Example 391, Cyclobutyl-{4-[4-(6-phenoxy-pyridin-3-yl)-phenoxy]-piperidin-1-yl}-methanone], 1000 to 10000 nM.
In the case of `O=C(C1CC1)N1CCC(Oc2ccc(-c3ccc(Nc4ccccc4)nc3)cc2)CC1` [Example 393, Cyclopropyl-{4-[4-(6-phenylaminopyridin-3-yl)-phenoxy]-piperidin-1-yl}-methanone, TFA salt] it was 1000 to 10000 nM.
Turning to `O=C(C1CCC1)N1CCC(Oc2ccc(-c3ccc(Nc4ccccc4)nc3)cc2)CC1` [Example 394, Cyclobutyl-{4-[4-(6-phenylaminopyridin-3-yl)-phenoxy]-piperidin-1-yl}-methanone, TFA salt], the IC50 fell in the range of 1000 to 10000 nM.
In the case of `CCC(=O)N1CCC(Oc2ccc(-c3cccc(-c4ccccn4)c3F)cc2)CC1` [Example 395, 1-[4-(2′-Fluoro-3′-pyridin-2-yl-biphenyl-4-yloxy)-piperidin-1-yl]-propan-1-one] it was 1000 to 10000 nM.
Take `O=C(C1CC1)N1CCC(Oc2ccc(-c3cccc(-c4ccccn4)c3F)cc2)CC1` [Example 396, Cyclopropyl-[4-(2′-fluoro-3′-pyridin-2-yl-biphenyl-4-yloxy)-piperidin-1-yl]-methanone]: the IC50 was in the range of 1000 to 10000 nM.
Regarding `CCC(=O)N1CCC(Oc2ccc(-c3cncc(Oc4ccccc4)c3)cc2)CC1` [Example 397, 1-{4-[4-(5-Phenoxypyridin-3-yl)-phenoxy]-piperidin-1-yl}-propan-1-one, TFA], the IC50 was in the range of 1000 to 10000 nM.
For `O=C(C1CCC1)N1CCC(Oc2ccc(-c3cccc(-c4ccccn4)c3F)cc2)CC1` [Example 398, Cyclobutyl-[4-(2′-fluoro-3′-pyridin-2-yl-biphenyl-4-yloxy)-piperidin-1-yl]-methanone HCl], the IC50 was 1000 to 10000 nM.
As for `O=C(C1CC1)N1CCC(Oc2ccc(-c3cncc(Oc4ccccc4)c3)cc2)CC1` [Example 399, Cyclopropyl-{4-[4-(5-phenoxy-pyridin-3-yl)-phenoxy]-piperidin-1-yl}-methanone, HCl], the figure is 1000 to 10000 nM.
Take `O=C(C1CCC1)N1CCC(Oc2ccc(-c3cncc(Oc4ccccc4)c3)cc2)CC1` [Example 400, Cyclobutyl-{4-[4-(5-phenoxypyridin-3-yl)-phenoxy]-piperidin-1-yl}-methanone, HCl]: the IC50 was 1000 to 10000 nM.
For `CCC(=O)N1CCC(Oc2ccc(-c3cncc(Nc4ccccc4)c3)cc2)CC1` [Example 401, 1-{4-[4-(5-Phenylaminopyridin-3-yl)-phenoxy]-piperidin-1-yl}-propan-1-one, TFA salt], the IC50 was 1000 to 10000 nM.
Turning to `CCC(=O)N1CCC(Oc2ccc(-c3ccnc(-c4ccccc4)c3)cc2)CC1` [Example 402, 1-{4-[4-(2-Phenylpyridin-4-yl)-phenoxy]-piperidin-1-yl}-propan-1-one, TFA], the IC50 is 1000 to 10000 nM.
As for `O=C(C1CC1)N1CCC(Oc2ccc(-c3ccnc(-c4ccccc4)c3)cc2)CC1` [Example 403, Cyclopropyl-{4-[4-(2-phenylpyridin-4-yl)-phenoxy]-piperidin-1-yl}-methanone, TFA salt], the figure is 1000 to 10000 nM; as for `CCC(=O)N1CCC(Oc2ccc(-c3ccnc(Nc4ccccc4)c3)cc2)CC1` [Example 404, 1-{4-[4-(2-Phenylaminopyridin-4-yl)-phenoxy]-piperidin-1-yl}-propan-1-one], 1000 to 10000 nM; as for `O=C(C1CC1)N1CCC(Oc2ccc(-c3ccnc(Nc4ccccc4)c3)cc2)CC1` [Example 405, Cyclopropyl-{4-[4-(2-phenylaminopyridin-4-yl)-phenoxy]-piperidin-1-yl}-methanone], 1000 to 10000 nM.
With `CCC(=O)N1CCC(Oc2ccc(-c3cccc(-c4ccccn4)c3C)cc2)CC1` [Example 406, 1-[4-(2′-Methyl-3′-pyridin-2-yl-biphenyl-4-yloxy)-piperidin-1-yl]-propan-1-one; TFA salt], the IC50 was in the range of 1000 to 10000 nM.
As for `Cc1c(-c2ccc(OC3CCN(C(=O)C4CC4)CC3)cc2)cccc1-c1ccccn1` [Example 407, Cyclopropyl-[4-(2′-methyl-3′-pyridin-2-yl-biphenyl-4-yloxy)-piperidin-1-yl]-methanone, TFA salt], the figure is 1000 to 10000 nM; as for `Cc1c(-c2ccc(OC3CCN(C(=O)C4CCC4)CC3)cc2)cccc1-c1ccccn1` [Example 408, Cyclobutyl-[4-(2′-methyl-3′-pyridin-2-yl-biphenyl-4-yloxy)-piperidin-1-yl]-methanone, TFA salt], 1000 to 10000 nM; as for `CCC(=O)N1CCC(Oc2ccc(-c3ccnc(Oc4ccccc4)c3)cc2)CC1` [Example 409, 1-{4-[4-(2-Phenoxypyridin-4-yl)-phenoxy]-piperidin-1-yl}-propan-1-one], 1000 to 10000 nM.
With `CCC(=O)N1CCC(Oc2ccc(-c3cc(OC)c4ccnn4c3)cc2)CC1` [Example 410, 1-{4-[4-(4-Methoxypyrazolo[1,5-a]pyridin-6-yl)-phenoxy]-piperidin-1-yl}-propan-1-one, HCl], the IC50 lay in the range of 100 to 999 nM.
As for `COc1cc(-c2ccc(OC3CCN(C(=O)C4CC4)CC3)cc2)cn2nccc12` [Example 411, Cyclopropyl-{4-[4-(4-methoxypyrazolo[1,5-a]pyridin-6-yl)-phenoxy]-piperidin-1-yl}-methanone, HCl], the IC50 is 100 to 999 nM.
`COc1cc(-c2ccc(OC3CCN(C(=O)C4CCC4)CC3)cc2)cn2nccc12` [Example 412, Cyclobutyl-{4-[4-(4-methoxypyrazolo[1,5-a]pyridin-6-yl)-phenoxy]-piperidin-1-yl}-methanone, HCl]: the IC50 lay in the range of 1 to 99 nM.
Turning to `CCC(=O)N1CCC(Oc2ccc(-c3ccc4cnc(Cl)cc4c3)cc2)CC1` [Example 413, 1-{4-[4-(3-Chloroisoquinolin-6-yl)-phenoxy]-piperidin-1-yl}-propan-1-one], the IC50 is 1000 to 10000 nM.
With `O=C(C1CC1)N1CCC(Oc2ccc(-c3ccc4cnc(Cl)cc4c3)cc2)CC1` [Example 414, {4-[4-(3-Chloroisoquinolin-6-yl)-phenoxy]-piperidin-1-yl}-cyclopropyl-methanone], the IC50 fell in the range of 1000 to 10000 nM.
`CCC(=O)N1CCC(Oc2ccc(-c3ccc4cnc(OC)cc4c3)cc2)CC1` [Example 415, 1-{4-[4-(3-Methoxyisoquinolin-6-yl)-phenoxy]-piperidin-1-yl}-propan-1-one]: the IC50 was in the range of 1000 to 10000 nM.
Regarding `COc1cc2cc(-c3ccc(OC4CCN(C(=O)C5CC5)CC4)cc3)ccc2cn1` [Example 416, Cyclopropyl-{4-[4-(3-methoxyisoquinolin-6-yl)-phenoxy]-piperidin-1-yl}-methanone], the IC50 is 100 to 999 nM.
In the case of `COc1cc2cc(-c3ccc(OC4CCN(C(=O)C5CCC5)CC4)cc3)ccc2cn1` [Example 417, Cyclobutyl-{4-[4-(3-methoxyisoquinolin-6-yl)-phenoxy]-piperidin-1-yl}-methanone], the IC50 was in the range of 100 to 999 nM.
Turning to `COc1cc2cc(-c3ccc(OC4CCN(C(=O)[C@H]5CCCO5)CC4)cc3)ccc2cn1` [Example 418, {4-[4-(3-Methoxy-isoquinolin-6-yl)-phenoxy]-piperidin-1-yl}-(R)-tetrahydrofuran-2-yl-methanone], the IC50 was 1 to 99 nM.
